Like-named read-outs stand apart in the source and are kept apart here.
What was measured:
[1] = test system: HT-29 cells; experiment: MTT cell viability assay, HT-29; format: cell-based; details: Homo sapiens, 48 h, read-out: Growth (%) HT-29
Description: (§1) The cell viability assay of each compound was carried out using the MTT assay. Each compound was dissolved in dimethyl sulfoxide (DMSO) at a concentration of 0.01 M. Serial dilutions were prepared with a non-supplemented culture medium. The effect of each compound on the cell viability was determined at two different concentrations (10 and 50 µM) in MCF-7, HTB-54, and HT-29 cells. In addition, the selected compounds were tested at six different concentrations between 0.1–100 µM in MCF-7, T47D, H1299, HTB-54, and 184B5 cells.
(§2) Briefly, 1 × 10^4 tumor cells/well or 2 × 10^4 non-tumorigenic cells/well were grown in 96-well plates for 12 h. Then, these cells were incubated with either DMSO (control) or a different concentration of each of the tested compounds for 48 h. Three hours before the termination point, 20 µL of MTT were added to measure the cellular viability. The resultant formazan crystals were dissolved in 50 µL of DMSO, and the absorbance was measured at 570 and 630 nm. The results are expressed as IC50, the half maximal inhibitory concentration. This value was calculated using OriginPro 8.5.1. software (OriginLab, Northampton, MA, USA) by nonlinear curve fitting. Furthermore, the selectivity index (SI) was calculated as the ratio of the IC50 values determined for the non-malignant and the tumor cells (IC50 (184B5)/IC50 (MCF-7). The data were obtained from at least three independent experiments performed in quadruplicates.

[2] = test system: MCF-7 cells; experiment: MTT cell viability assay, MCF-7; format: cell-based, human; details: for activity at 10 µM / activity at 50 µM / IC50: Homo sapiens, MCF7; for activity at 10 µM / activity at 50 µM / reduction of cell growth / IC50: 48 h; for activity at 10 µM / activity at 50 µM: read-out: Growth (%) MCF-7; for reduction of cell growth: in at least one of the cell lines (MCF-7, HT-29, HTB-54); for SI (selectivity index): IC50 (184B5)/IC50 (MCF-7)
Description: as §1, §2

[3] = test system: HTB-54 cells; experiment: MTT cell viability assay, HTB-54; format: cell-based; details: Homo sapiens, 48 h; for activity at 10 µM / activity at 50 µM: read-out: Growth (%) HTB-54
Description: as §1, §2

[4] = ABTS radical scavenging assay; details: for ABTS radical scavenging activity compared with controls: 0.003 mg/mL
Description: ABTS radical scavenging was assayed with a colorimetric test as well [59]. Briefly, ABTS was dissolved in deionized water at 1 mg/mL and oxidized to ABTS^+• with potassium persulfate (2.45 mM final concentration). This reaction mixture was kept overnight at room temperature in the dark. After radical generation, ABTS^+• was diluted with 50% ethanol until an absorbance of 0.70 ± 0.02 at 734 nm for measurements. The tested compounds were solved in absolute ethanol at a concentration of 1 mg/mL, and 20 µL of this solution were added to 180 µL of the diluted ABTS^+•. After 6 min of incubation, the absorbance at 734 nm was recorded using 50% ethanol as the blank. Trolox and Asc were used as the positive controls. All of the determinations were carried out in triplicate. The same time intervals as in the DPPH assay were also measured. The ability to scavenge ABTS^+• was calculated using the following formula:(2) % ABTS radical scavenging=Acontrol−Asample/Acontrol × 100 where Acontrol refers to the absorbance of the negative control and Asample refers to the absorbance of the tested compounds. The results are expressed as percentage of ABTS radical scavenging ± SD.

[5] = test system: H1299 cells; experiment: MTT cell viability assay, H1299; format: cell-based; details: Homo sapiens, NCI-H1299, lung cancer cells, 48 h
Description: as §1, §2

[6] = test system: T47D cells; experiment: MTT cell viability assay, T47D; format: cell-based; details: Homo sapiens, breast cancer cells, 48 h
Description: as §1, §2

[7] = test system: 184B5 cells; experiment: MTT cell viability assay, non-malignant 184B5; format: cell-based; details: Homo sapiens, non-malignant breast cells, 48 h
Description: as §1, §2

[8] = breast cancer cells, MTT, read-out: IC50 MCF-7
[9] = HTB-54, lung cancer cells, MTT, read-out: IC50 HTB-54
[10] = HTB-54 and H1299 pooled, read-out: IC50 on both lung cancer cells

COc1ccc(NC(=[Se])NC(=O)C=Cc2ccccc2)cc1 [Compound 8c] gave an activity at 10 µM [1] of 73.4%, an activity at 50 µM [1] of 42.5% and an activity at 10 µM ([2]; 10 μM) of 70.2%. The activity at 50 µM ([2]; 50 μM) was 5.7%, the activity at 10 µM ([3]; HTB-54) was 64.1% and the activity at 50 µM ([3]; HTB-54) was 19.3%. For the same molecule, the “ABTS radical scavenging activity compared with controls” value [4] was “potent radical scavenging activity similar to Trolox”.

With O=C(NC(=[Se])Nc1ccc(C(F)(F)F)cc1)c1cc2ccccc2s1 [Compound 9d] the activity at 10 µM [1] was 61.2%, the activity at 50 µM [1] was 36% and the activity at 10 µM ([2]; 10 μM) was 91.1%. It also gave an activity at 50 µM ([2]; 50 μM) of 70.2%, an activity at 10 µM ([3]; HTB-54) of 84.5% and an activity at 50 µM ([3]; HTB-54) of 79.3%. The ABTS radical scavenging ([4]; 0.03 mg/mL, after the incubation time) was “below 60%”.

For O=C(NC(=[Se])Nc1ccc(Cl)cc1)c1cc2ccccc2s1 [Compound 9e], the IC50 [5] was 8.7 ± 1.4 µM, the IC50 [6] was 7.1 ± 0.6 µM and the activity at 10 µM [1] was 45.4%. For the same molecule, the activity at 50 µM [1] was 33.5%, the “reduction of cell growth” value ([2]; 10 μM) was “at least 45%” and the “reduction of cell growth” value ([2]; 50 μM) was “more than 85%”. It also gave an activity at 10 µM ([2]; 10 μM) of 54.8%, an activity at 50 µM ([2]; 50 μM) of 44.4% and an IC50 [2, 8] of 9.8 ± 0.9 µM. The “SI (selectivity index)” value [2] was greater than 10.2, the activity at 10 µM ([3]; HTB-54) was 32.9% and the activity at 50 µM ([3]; HTB-54) was 9%. For the same molecule, the IC50 [3, 9] was greater than 100 µM and the IC50 [7] was greater than 100 µM.

Work on O=C(NC(=[Se])Nc1ccccc1)c1ccc2c(c1)OCO2 [Compound 10a] yielded an IC50 [5] of 11.2 ± 0.8 µM, an IC50 [6] of 8 ± 1 µM and an activity at 10 µM [1] of 57.3%. For the same molecule, the activity at 50 µM [1] was 49.5%, the “reduction of cell growth” value ([2]; 10 μM) was “at least 45%” and the “reduction of cell growth” value ([2]; 50 μM) was “more than 85%”. The activity at 10 µM ([2]; 10 μM) was 37.8%, the activity at 50 µM ([2]; 50 μM) was 22.4% and the IC50 ([2]; MCF-7 and T47D pooled, read-out: IC50 on breast cancer cells) was 4.2 to 8 µM. For the same molecule, the IC50 [2, 8] was 4.4 ± 1 µM, the “SI (selectivity index)” value [2] was greater than 22.9 and the activity at 10 µM ([3]; HTB-54) was 44%. The activity at 50 µM ([3]; HTB-54) was 13.1%, the IC50 [3, 9] was greater than 100 µM and the IC50 [7] was greater than 100 µM.

With Cc1ccc(NC(=[Se])NC(=O)c2ccc3c(c2)OCO3)cc1 [Compound 10b] the IC50 [5] was 5.9 ± 1.4 µM, the IC50 [6] was 11.9 ± 1 µM and the activity at 10 µM [1] was 63.3%. The activity at 50 µM [1] was 43.9%, the “reduction of cell growth” value ([2]; 10 μM) was “at least 45%” and the “reduction of cell growth” value ([2]; 50 μM) was “more than 85%”. It also gave an activity at 10 µM ([2]; 10 μM) of 63%, an activity at 50 µM ([2]; 50 μM) of 7.4% and an IC50 [2, 8] of 7.3 ± 0.3 µM. The “SI (selectivity index)” value [2] was greater than 13.6, the activity at 10 µM ([3]; HTB-54) was 16.4% and the activity at 50 µM ([3]; HTB-54) was 12%. For the same molecule, the IC50 [3, 9] was 1.5 ± 1.8 µM, the IC50 [3, 10] was 1.5 to 7.3 µM and the “ABTS radical scavenging activity compared with controls” value [4] was “potent radical scavenging activity similar to Trolox”. It also gave an IC50 [7] greater than 100 µM.

COc1ccc(NC(=[Se])NC(=O)c2ccc3c(c2)OCO3)cc1 [Compound 10c] gave an IC50 [5] of 7.3 ± 0.2 µM, an IC50 [6] of 12.9 ± 1.5 µM and an activity at 10 µM [1] of 55.7%. The activity at 50 µM [1] was 35.5%, the “reduction of cell growth” value ([2]; 10 μM) was “at least 45%” and the “reduction of cell growth” value ([2]; 50 μM) was “more than 85%”. The activity at 10 µM ([2]; 10 μM) was 52.7%, the activity at 50 µM ([2]; 50 μM) was 15.6% and the IC50 [2, 8] was 8.5 ± 0.6 µM. For the same molecule, the “SI (selectivity index)” value [2] was 6.3, the activity at 10 µM ([3]; HTB-54) was 78.2% and the activity at 50 µM ([3]; HTB-54) was 5.1%. It also gave an IC50 [3, 9] of 5.2 ± 4 µM, an IC50 [3, 10] of 1.5 to 7.3 µM and an IC50 [7] of 53.8 ± 10.5 µM.

Molecule O=C(NC(=[Se])Nc1ccc(C(F)(F)F)cc1)c1ccc2c(c1)OCO2 [Compound 10d] has an IC50 [5] of 5.7 ± 0.1 µM, an IC50 [6] of 11.8 ± 1.9 µM and an activity at 10 µM [1] of 66.5%. The activity at 50 µM [1] was 13.9%, the activity at 10 µM ([2]; 10 μM) was 60.6% and the activity at 50 µM ([2]; 50 μM) was 8.4%. The IC50 [2, 8] was 7.9 ± 0.7 µM, the “SI (selectivity index)” value [2] was greater than 12.7 and the activity at 10 µM ([3]; HTB-54) was 79.6%. It also gave an activity at 50 µM ([3]; HTB-54) of 5.1%, an IC50 [3, 9] of 23.4 ± 3.2 µM and an IC50 [7] greater than 100 µM.

O=C(NC(=[Se])Nc1ccc(Cl)cc1)c1ccc2c(c1)OCO2 [Compound 10e] showed an IC50 [5] of 48.6 ± 0.9 µM, an IC50 [6] of 17.4 ± 3.1 µM and an activity at 10 µM [1] of 54.4%. For the same molecule, the activity at 50 µM [1] was 21.4%, the “reduction of cell growth” value ([2]; 10 μM) was “at least 45%” and the “reduction of cell growth” value ([2]; 50 μM) was “more than 85%”. For the same molecule, the activity at 10 µM ([2]; 10 μM) was 55.6%, the activity at 50 µM ([2]; 50 μM) was 16.9% and the IC50 [2, 8] was 11.7 ± 1.5 µM. For the same molecule, the “SI (selectivity index)” value [2] was 6.2, the activity at 10 µM ([3]; HTB-54) was 45.5% and the activity at 50 µM ([3]; HTB-54) was 6.5%. For the same molecule, the IC50 [3, 9] was 2.9 ± 3.2 µM and the IC50 [7] was 73.1 ± 5.2 µM.

— paper PMC7023466, “Novel N,N′-Disubstituted Acylselenoureas as Potential Antioxidant and Cytotoxic Agents” (Antioxidants, 2020)
